Assay results as given in patent US20230219898A1, “COMPOUNDS AND METHODS FOR BLOCKING APOPTOSIS AND INDUCING AUTOPHAGY” (President and Fellows of Harvard College, priority 2020, published 2023).
pIC50: −log10 of the molar value. Read-outs that look alike come from different tables or passages of the source. Where a SMILES comes first, the peptide text is derived from it. The star is where a group is joined. Cbz = O=C(OCc1ccccc1)*; CH2F = FC*

Tests used:
[1] = system: Human Jurkat cells; assay: Velcade-induced apoptosis of Jurkat cells, CellTiter-Glo viability; format: cell-based; conditions: 24 hours
Experimental: (§1) Human Jurkat cells were seeded in 96-well plates (20000 cells per well). Different concentrations of the compounds were added one hour prior to Velcade treatment, followed by the addition of 50 nM Velcade. After incubation for 24 hours, cell viability was measured by CellTiter-Glo Luminescent Cell Viability Assay.
(§2) The rates of cell death were measured in triplicate or quadruplicate in a 96-well or 384-well plate by using SYTOX Green Nucleic Acid Stain (Invitrogen) or ToxiLight Non-destructive Cytotoxicity BioAssay Kit (Lonza). The intensity of luminescence was determined in an EnSpire Multimode Plate Reader (PerkinElmer). Cytotoxicity is expressed as percentages of cell death per well after deducting the background signal in non-induced cells and compared to that of the maximal cell death with 100% Lysis Reagent. The rates of cell viability were determined by using CellTiter-Glo Luminescent Cell Viability Assay (Promega) following the manufacturer's protocol and the results are expressed as percentages of luminescence intensity per well after deducting the background signal in blank well and compared to that of the viability in the non-treated wells. Concentration of drugs used for inducing or inhibiting cell death, mTNFα: 1 ng/ml; 5Z-7-Oxozeaenol: 0.5 μM; Velcade: 50 nM; Apt-1/ICCB-19/ICCB-19i/Nec-1s: 10 μM.

[2] = system: Murine RGC5(661W) cells; assay: RIPK1-dependent apoptosis (RDA) of RGC5 cells induced by TNFα plus 5Z-7-Oxozeaenol; format: cell-based; conditions: Mus musculus, 21 hours; for pIC50: Table 2, 0.5 ng/ml TNFα plus 0.5 μM 5Z-7-Oxozeaenol, read-out: RGC5 T/5z7 IC50; for IC50: Table 3, 0.5 ng/ml TNFα plus 0.5 μM 5Z-7-Oxozeaenol, read-out: RGC5 T/5z7 IC50/μM
Experimental: as §1, with “Murine RGC5(661W)” for “Human Jurkat”, “(4000” for “(20000”, “TNFα” for “Velcade”, “0.5 ng/ml TNFα plus 0.5 μM 5Z-7-Oxozeaenol to induce RIPK1-dependent apoptosis (RDA).” for “50 nM Velcade.”, “21” for “24”

[3] = system: cleaved-caspase 3 (CC3) in MEF cells; assay: Cleaved caspase 3 immunoblot in MEF cells treated with 5z-7-oxozeaenol and TNFα (FIG. 22); format: cell-based, mouse; conditions: 10 uM; 2 h 0.5 uM 5z-7-oxozeaenol and 1 ng/mL TNFα
Experimental: (§3) Specifically, wild-type MEF cells were pretreated for 1 h with 10 uM of the specified compounds, followed by 2 h treatment with 0.5 uM 5z-7-oxozeaenol and 1 ng/mL TNFα. Cell lysates were prepared and immunoblotted for cleaved-caspase 3 (CC3). Wild-type Jurkat cells were also pretreated for 1 h with 10 uM of the specified compounds, followed by 12 h treatment with 50 nM Velcade. Cell lysates were prepared and immunoblotted for cleaved-caspase 3 (CC3).

[4] = system: H4 cells; assay: Autophagy by LC3II western blotting in H4 cells (FIG. 21); format: cell-based; conditions: 10 uM, 1 h pretreatment, 6 h vehicle or 40 mM NH4Cl
Experimental: (§4) Wild-type H4 and MEF cells that were pretreated for 1 h with 10 uM of the specified compounds, followed by 6 h treatment with either vehicle or 40 mM NH4Cl. Cell lysates were prepared and immunoblotted for LC3-I and LC3-II. Autophagy was determined by LC3II levels using western blotting.

[5] = system: MEF cells; assay: Autophagy by LC3II western blotting in MEF cells (FIG. 21); format: cell-based, mouse; conditions: 10 uM, 1 h pretreatment, 6 h vehicle or 40 mM NH4Cl
Experimental: as §4

[6] = system: cleaved caspase-3 in Jurkat cells; assay: Cleaved caspase-3 immunoblot in Velcade-treated cells; format: cell-based, human; conditions: 10 uM; 12 h 50 nM Velcade
Experimental: The levels of cleaved caspase-3 were determined by immunoblotting.
as §3

[7] = system: MEFs; assay: RDA in MEFs induced by mTNFα and 5Z-7-Oxozeaenol, cell survival; format: cell-based, mouse; conditions: 10 μM
Experimental: as §2

[8] = system: H4-GFP-LC3 cells; assay: Autophagy induction, GFP-LC3 puncta and LC3II immunoblotting; format: cell-based; conditions: 10 μM, 6 h (zVAD.fmk 20 μM)
Experimental: Mean ±s.e.m. (n=5). One-way ANOVA, post hoc Dunnett's test.
Autophagy was determined by LC3II levels using immunoblotting. SE=shorter exposure, LE=longer exposure.
Autophagy was measured by LC3II induction and p62 reduction by immunoblotting. The levels of LC3II in cells treated with both Apt-1 and NH4Cl, the latter of which inhibits lysosome, were higher than that treated with either Apt-1 or NH4Cl alone. Thus, ICCB-19/Apt-1, but not ICCB-19i, induce autophagic flux. Mean ±s.e.m. from technical triplicates (n=3), representative of 3 independent experiments. Two-tailed t-test. **P=0.0037.
Levels of LC3II determined by immunoblotting.
Cells were seeded at 2.5×10^4 cells per well on poly-L-lysine coated glass cover slips and transfected as described. Cells were fixed in 4% paraformaldehyde, followed by permeabilization with 0.1% Triton X-100. Nuclei were stained using DAPI (Sigma). Cells expressing GFP or RFP-fusion proteins were imaged with an Olympus Fluoview FV1000 confocal microscope (Olympus) using a 40×objective. For GFP-LC3 and DsRed-FYVE puncta quantification, the average spot intensity in 1000 cells from each indicated sample was determined. Images were processed using ImageJ and Photoshop CC. Concentration of compounds used to induce or block autophagy: 10 μM (Apt-1, ICCB-19, ICCB-19i or Spautin-1), for 6 h or as indicated.

[9] = Table 1, 50 nM Velcade, read-out: Apoptosis of Jurkat cells induced by Velcade (IC50 μM)
[10] = Table 3, 50 nM Velcade, read-out: Jurkat Velcade IC50/μM

| IC50 [1, 10] | IC50 [2] | Structure (SMILES) | further results |
| --- | --- | --- | --- |
|  |  | N=C(N)SCc1ccccc1F [Compound 1] | IC50 [1, 9]: 6.2 µM |
|  |  | COc1ccc(CSC(=N)N)cc1[N+](=O)[O-] [Compound 2] | IC50 [1, 9]: 4.4 µM |
|  |  | Cc1ccccc1NC(=O)CSC1=NCCN1 [Compound 3] | IC50 [1, 9]: 32.1 µM |
|  |  | Cc1ccc(NC(=O)CSC2=NCCN2)cc1 [Compound 4] | IC50 [1, 9]: 10.5 µM |
|  |  | COc1ccc(NC(=O)CSC2=NCCN2)cc1 [Compound 5] | IC50 [1, 9]: 46.4 µM |
|  |  | N#Cc1ccc(CSC(=N)N)cc1 [Compound 7] | IC50 [1, 9]: 6.84 µM |
|  |  | FC(F)=C(F)CCSC1=NCCN1 [Compound 8] | IC50 [1, 9]: 17.3 µM |
|  |  | O=C(CSC1=NCCN1)NC1CCCCC1 [Compound 12] | pIC50 [2]: 5.63 |
|  |  | O=C(CSC1=NCCN1)NC1CCCC1 [Compound 13] | pIC50 [2]: 5.47 |
|  |  | O=C(CSC1=NCCN1)NC1CCC1 [Compound 14] | pIC50 [2]: 5.35 |
| 1.46 µM | 8.84 µM | CN(C(=O)CSC1=NCCN1)C1CCCCCC1 [Compound 16] |  |
| 3.66 µM | 4.02 µM | CC(SC1=NCCN1)C(=O)NC1CCCCCC1 (stereo not drawn) [Compound 18] |  |
| 1.8 µM | 3.33 µM | CN1CCN=C1SCC(=O)NC1CCCCCC1 [Compound 19] |  |
| 1.22 µM | 2.87 µM | CC(SC1=NCCN1)C(=O)N(C)C1CCCCCC1 (stereo not drawn) [Compound 25] |  |
| 1.99 µM | 3.08 µM | CN1CCN=C1SCC(=O)N(C)C1CCCCCC1 [Compound 26] |  |
| 3.06 µM | 2.81 µM | CC(SC1=NCCN1C)C(=O)NC1CCCCCC1 (stereo not drawn) [Compound 27] |  |
| 0.953 µM | 2.93 µM | CC(SC1=NCCN1C)C(=O)N(C)C1CCCCCC1 (stereo not drawn) [Compound 28] |  |
| 3.87 µM | 1.83 µM | CC(C)C(SC1=NCCN1C)C(=O)NC1CCCCCC1 (stereo not drawn) [Compound 29] |  |
| 1.04 µM | 1.67 µM | CN1CCN=C1SC(C)(C)C(=O)NC1CCCCCC1 [Compound 33] |  |
| 0.882 µM | 2.21 µM | CN1CCN=C1SC(C(=O)NC1CCCCCC1)c1ccccc1Cl (stereo not drawn) [Compound 34] |  |
| 2.14 µM | 1.6 µM | CN1CCN=C1SC(C(=O)NC1CCCCCC1)c1ccc(Cl)cc1 (stereo not drawn) [Compound 35] |  |
| 1.07 µM | 1.79 µM | CCN1CCN=C1SC(C(=O)NC1CCCCCC1)c1ccccc1 (stereo not drawn) [Compound 36] |  |
| 1.17 µM | 3.05 µM | O=C(CSC1=NCCN1)NC(c1ccccc1)c1ccccc1 [Compound 37] |  |
|  |  | C/N=C(\NC)NCC(=O)N1CCCC1 [Compound 38] | cleaved caspase 3 in MEF cells [3]: block cleaved caspase 3; autophagy (LC3II levels) in H4 cells [4]: induce autophagy; autophagy (LC3II levels) in MEF cells [5]: induce autophagy; cleaved caspase 3 in Jurkat cells [6]: block cleaved caspase 3 |
| 3.23 µM | 5.87 µM | Fc1ccccc1CSC1=NCCN1 [Compound 40] | cleaved caspase 3 in MEF cells [3]: block cleaved caspase 3; autophagy (LC3II levels) in H4 cells [4]: induce autophagy; autophagy (LC3II levels) in MEF cells [5]: induce autophagy; cleaved caspase 3 in Jurkat cells [6]: block cleaved caspase 3 |
| 1.15 µM | 1.57 µM | CN1CCN=C1SC(C(=O)NC(c1ccccc1)c1ccccc1)c1ccccc1 (stereo not drawn) [Compound 42] |  |
|  |  | O=C(CSC1=NCCN1)N1CCc2ccccc21 [ICCB-17] | IC50 [1, 9]: 13.4 µM |
|  |  | CN1C(=O)NC(Cc2c[nH]c3c(Cl)cccc23)C1=O (stereo not drawn) [Nec-1s, reference compound] | protection against RDA models [7]: protected against multiple RDA models |
|  |  | COC(=O)C[C@H](NC(=O)[C@H](C)NC(=O)[C@@H](NC(=O)OCc1ccccc1)C(C)C)C(=O)CF [zVAD.fmk, reference compound] (Cbz-Val-Ala-Asp(OMe)-CH2F) | induction of autophagy [8]: no effect on autophagy |
